Results: ChEMBL document CHEMBL4765420, “Design, synthesis and biological evaluation of novel HDAC inhibitors with improved pharmacokinetic profile in breast cancer” (Eur J Med Chem, 2020)
Active and inactive are the calls of the source. The calls are words filed in the database; no cut-off is given here.

What was measured:
Histone deacetylase 7 = target: T1, Histone deacetylase 7 (Homo sapiens, UniProt Q8WUI4); assay: Inhibition of HDAC7 (unknown origin) using AcLeu-Gly-Lys(Tfa)-AMC as substrate measured after 30 mins by fluorescence assay
T1 sequence (Q8WUI4 whole entry): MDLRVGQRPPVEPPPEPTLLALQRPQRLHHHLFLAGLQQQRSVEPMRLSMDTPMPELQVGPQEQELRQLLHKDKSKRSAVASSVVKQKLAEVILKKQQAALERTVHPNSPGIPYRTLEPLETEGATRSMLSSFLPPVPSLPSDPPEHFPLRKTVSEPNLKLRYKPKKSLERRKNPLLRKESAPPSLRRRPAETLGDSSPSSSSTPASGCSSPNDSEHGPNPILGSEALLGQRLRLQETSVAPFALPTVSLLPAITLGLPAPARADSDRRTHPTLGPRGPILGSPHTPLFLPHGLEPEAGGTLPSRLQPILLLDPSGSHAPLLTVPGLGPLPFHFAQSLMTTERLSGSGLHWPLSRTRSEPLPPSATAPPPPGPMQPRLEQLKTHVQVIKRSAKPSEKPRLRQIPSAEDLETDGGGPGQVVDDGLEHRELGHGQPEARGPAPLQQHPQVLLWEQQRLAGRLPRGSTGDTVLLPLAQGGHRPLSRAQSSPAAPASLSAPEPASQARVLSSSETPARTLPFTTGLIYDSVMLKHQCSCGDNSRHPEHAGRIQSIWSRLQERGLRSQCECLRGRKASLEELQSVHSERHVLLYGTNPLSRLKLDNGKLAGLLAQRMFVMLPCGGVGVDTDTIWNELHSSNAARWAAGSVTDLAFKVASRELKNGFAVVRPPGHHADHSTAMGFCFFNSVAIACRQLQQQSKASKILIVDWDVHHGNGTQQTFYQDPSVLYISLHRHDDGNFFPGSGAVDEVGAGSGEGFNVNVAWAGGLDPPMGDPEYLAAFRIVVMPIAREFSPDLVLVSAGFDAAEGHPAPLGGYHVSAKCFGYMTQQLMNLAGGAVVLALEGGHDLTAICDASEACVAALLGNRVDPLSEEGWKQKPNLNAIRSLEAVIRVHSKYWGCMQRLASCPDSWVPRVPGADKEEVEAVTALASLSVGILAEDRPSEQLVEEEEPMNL

Histone deacetylase 4 = Histone deacetylase 4 (Homo sapiens, UniProt P56524); assay: Inhibition of recombinant human N-terminal GST-tagged HDAC4 (627 to end residues) expressed in baculovirus infected Sf9 insect cells using AcLeu-Gly-Lys(Tfa)-AMC as substrate measured after 30 mins by fluorescence assay
MDA-MB-231 [1] = assay: Antiproliferative activity against human MDA-MB-231 cells measured after 96 hrs by MTT assay; type: functional, cell-based; details: MDA-MB-231, 96 h
MDA-MB-231 [2] = assay: Induction of autophagy in human MDA-MB-231 cells assessed as increase in Beclin1 expression at 2.5 to 10 uM measured after 24 hrs by Western blot analysis; type: functional, cell-based; details: dose 2.5-10 µM
MDA-MB-231 [3] = assay: Induction of apoptosis in human MDA-MB-231 cells assessed as increase in cleaved caspase-3 expression at 2.5 to 10 uM measured after 24 hrs by Western blot analysis; type: functional, cell-based; details: dose 2.5-10 µM
[4] = target: Histone deacetylase 3/NCoR1 (Homo sapiens, UniProt O15379); assay: Inhibition of recombinant human GST-fused HDAC3/NCOR1 (397 to 503 residues) expressed in baculovirus infected insect cells using Ac-Leu-Gly-Lys(Ac)-AMC as substrate measured after 30 mins by fluorescence assay
MDA-MB-231 [5] = assay: Inhibition of cell migration in human MDA-MB-231 cells measured after 24 hrs by phase-contrast microscopy based wound healing assay; type: functional
MDA-MB-231 [6] = assay: Antiproliferative activity against human MDA-MB-231 cells measured after 72 hrs by MTT assay; type: functional, cell-based; details: MDA-MB-231, 72 h
MDA-MB-231 [7] = assay: Induction of apoptosis in human MDA-MB-231 cells assessed as necrotic cells at 2.5 uM measured after 24 hrs by Annexin-V/propidium iodide staining based flow cytometry (reference value: 0.22 to 0.46%); type: functional
MDA-MB-231 [8] = assay: Induction of autophagy in human MDA-MB-231 cells assessed as decrease in SQSTM1/p62 expression at 2.5 to 10 uM measured after 24 hrs by Western blot analysis; type: functional, cell-based; details: dose 2.5-10 µM
MDA-MB-231 [9] = assay: Induction of apoptosis in human MDA-MB-231 cells assessed as down regulation of Bcl-2 expression at 2.5 to 10 uM measured after 24 hrs by Western blot analysis; type: functional, cell-based; details: dose 2.5-10 µM
Histone deacetylase 11 = target: T2, Histone deacetylase 11 (Homo sapiens, UniProt Q96DB2); assay: Inhibition of recombinant human N-terminal His-tagged HDAC11 expressed in baculovirus infected Sf9 insect cells using Ac-Arg-His-Lys(Ac)-Lys(Ac)-AMC as substrate measured after 30 mins by fluorescence assay
T2 sequence (Q96DB2 whole entry): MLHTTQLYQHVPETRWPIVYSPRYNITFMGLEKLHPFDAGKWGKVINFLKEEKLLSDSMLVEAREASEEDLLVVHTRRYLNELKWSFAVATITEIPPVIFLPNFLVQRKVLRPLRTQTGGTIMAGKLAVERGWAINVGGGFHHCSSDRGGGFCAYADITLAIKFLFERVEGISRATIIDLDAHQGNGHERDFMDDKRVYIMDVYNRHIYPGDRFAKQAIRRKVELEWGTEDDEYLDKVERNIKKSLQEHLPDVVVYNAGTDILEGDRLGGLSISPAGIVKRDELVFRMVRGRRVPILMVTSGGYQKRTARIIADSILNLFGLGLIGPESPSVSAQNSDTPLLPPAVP

MDA-MB-231 [10] = assay: Induction of apoptosis in human MDA-MB-231 cells assessed as up regulation of Bax expression at 2.5 to 10 uM measured after 24 hrs by Western blot analysis; type: functional, cell-based; details: dose 2.5-10 µM
MDA-MB-231 [11] = assay: Induction of apoptosis in human MDA-MB-231 cells assessed as late apoptotic cells at 10 uM measured after 24 hrs by Annexin-V/propidium iodide staining based flow cytometry (reference value: 0.71 to 2.94%); type: functional
MDA-MB-231 [12] = assay: Induction of apoptosis in human MDA-MB-231 cells assessed as increase in DNA fragmentation at 2.5 to 10 uM measured after 24 hrs by Hoechst 33258 staining based immunofluorescence assay; type: functional, cell-based; details: dose 2.5-10 µM
MDA-MB-231 [13] = assay: Induction of apoptosis in human MDA-MB-231 cells assessed as early apoptotic cells at 5 uM measured after 24 hrs by Annexin-V/propidium iodide staining based flow cytometry (reference value: 0.69 to 0.92%); type: functional
MDA-MB-231 [14] = assay: Inhibition of cell migration in human MDA-MB-231 cells at 2.5 to 10 uM measured after 24 hrs using crystal violet staining by phase-contrast microscopy based transwell assay; type: functional; details: dose 2.5-10 µM
Histone deacetylase 9 = Histone deacetylase 9 (Homo sapiens, UniProt Q9UKV0); assay: Inhibition of recombinant human full-length N-terminal GST-tagged HDAC9 (1 to 1069 residues) expressed in wheat germ expression system using Ac-Leu-Gly-Lys(Tfa)-AMC as substrate measured after 30 mins by fluorescence assay
MDA-MB-231 [15] = assay: Induction of apoptosis in human MDA-MB-231 cells assessed as viable cells at 5 uM measured after 24 hrs by Annexin-V/propidium iodide staining based flow cytometry (reference value: 95.68 to 98.38%); type: functional; details: read-out: Activity

Sequence of Histone deacetylase 4 (P56524 whole entry): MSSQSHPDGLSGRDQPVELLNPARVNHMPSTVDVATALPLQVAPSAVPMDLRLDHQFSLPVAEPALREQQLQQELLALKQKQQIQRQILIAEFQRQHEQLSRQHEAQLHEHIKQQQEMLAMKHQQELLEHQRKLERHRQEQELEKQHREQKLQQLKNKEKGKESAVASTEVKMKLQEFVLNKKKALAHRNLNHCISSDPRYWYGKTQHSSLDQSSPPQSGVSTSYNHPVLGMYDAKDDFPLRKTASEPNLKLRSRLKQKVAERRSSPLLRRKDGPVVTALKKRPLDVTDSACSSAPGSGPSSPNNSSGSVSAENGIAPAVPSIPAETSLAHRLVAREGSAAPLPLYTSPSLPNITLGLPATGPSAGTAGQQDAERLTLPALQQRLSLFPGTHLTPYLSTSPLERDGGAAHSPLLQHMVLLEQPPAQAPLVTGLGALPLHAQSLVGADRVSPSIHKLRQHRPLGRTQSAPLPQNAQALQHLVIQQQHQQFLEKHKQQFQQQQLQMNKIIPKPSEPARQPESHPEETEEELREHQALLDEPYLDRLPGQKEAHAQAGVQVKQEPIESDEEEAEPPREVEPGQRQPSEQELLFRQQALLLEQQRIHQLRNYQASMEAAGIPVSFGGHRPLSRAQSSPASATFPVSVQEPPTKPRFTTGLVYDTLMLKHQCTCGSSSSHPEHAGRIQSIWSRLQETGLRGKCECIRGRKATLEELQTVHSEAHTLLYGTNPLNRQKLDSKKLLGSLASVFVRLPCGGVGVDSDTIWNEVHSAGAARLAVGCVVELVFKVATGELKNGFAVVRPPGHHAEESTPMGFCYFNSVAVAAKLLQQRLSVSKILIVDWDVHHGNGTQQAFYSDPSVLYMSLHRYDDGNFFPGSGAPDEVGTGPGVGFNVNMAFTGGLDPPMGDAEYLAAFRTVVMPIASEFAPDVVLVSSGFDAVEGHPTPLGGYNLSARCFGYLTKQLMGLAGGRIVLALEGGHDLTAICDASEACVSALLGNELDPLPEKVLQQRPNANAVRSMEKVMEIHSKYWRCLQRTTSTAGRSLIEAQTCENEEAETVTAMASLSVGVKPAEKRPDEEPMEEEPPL
Sequence of Histone deacetylase 3/NCoR1 (O15379 whole entry, the tested form may be a part): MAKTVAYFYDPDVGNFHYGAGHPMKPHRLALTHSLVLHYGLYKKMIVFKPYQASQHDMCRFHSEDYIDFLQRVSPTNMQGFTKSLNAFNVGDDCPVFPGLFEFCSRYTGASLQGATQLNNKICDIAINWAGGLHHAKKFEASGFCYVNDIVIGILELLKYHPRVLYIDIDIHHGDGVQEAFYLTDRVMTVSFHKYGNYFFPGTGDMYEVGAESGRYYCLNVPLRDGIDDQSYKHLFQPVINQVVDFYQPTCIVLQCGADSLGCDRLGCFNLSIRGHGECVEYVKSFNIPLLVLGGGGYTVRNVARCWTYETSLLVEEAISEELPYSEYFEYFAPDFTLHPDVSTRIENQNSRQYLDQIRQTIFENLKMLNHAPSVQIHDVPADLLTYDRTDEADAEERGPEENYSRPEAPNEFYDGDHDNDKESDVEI
Sequence of Histone deacetylase 3/NCoR1 (O75376 whole entry, further chain, the tested form may be a part): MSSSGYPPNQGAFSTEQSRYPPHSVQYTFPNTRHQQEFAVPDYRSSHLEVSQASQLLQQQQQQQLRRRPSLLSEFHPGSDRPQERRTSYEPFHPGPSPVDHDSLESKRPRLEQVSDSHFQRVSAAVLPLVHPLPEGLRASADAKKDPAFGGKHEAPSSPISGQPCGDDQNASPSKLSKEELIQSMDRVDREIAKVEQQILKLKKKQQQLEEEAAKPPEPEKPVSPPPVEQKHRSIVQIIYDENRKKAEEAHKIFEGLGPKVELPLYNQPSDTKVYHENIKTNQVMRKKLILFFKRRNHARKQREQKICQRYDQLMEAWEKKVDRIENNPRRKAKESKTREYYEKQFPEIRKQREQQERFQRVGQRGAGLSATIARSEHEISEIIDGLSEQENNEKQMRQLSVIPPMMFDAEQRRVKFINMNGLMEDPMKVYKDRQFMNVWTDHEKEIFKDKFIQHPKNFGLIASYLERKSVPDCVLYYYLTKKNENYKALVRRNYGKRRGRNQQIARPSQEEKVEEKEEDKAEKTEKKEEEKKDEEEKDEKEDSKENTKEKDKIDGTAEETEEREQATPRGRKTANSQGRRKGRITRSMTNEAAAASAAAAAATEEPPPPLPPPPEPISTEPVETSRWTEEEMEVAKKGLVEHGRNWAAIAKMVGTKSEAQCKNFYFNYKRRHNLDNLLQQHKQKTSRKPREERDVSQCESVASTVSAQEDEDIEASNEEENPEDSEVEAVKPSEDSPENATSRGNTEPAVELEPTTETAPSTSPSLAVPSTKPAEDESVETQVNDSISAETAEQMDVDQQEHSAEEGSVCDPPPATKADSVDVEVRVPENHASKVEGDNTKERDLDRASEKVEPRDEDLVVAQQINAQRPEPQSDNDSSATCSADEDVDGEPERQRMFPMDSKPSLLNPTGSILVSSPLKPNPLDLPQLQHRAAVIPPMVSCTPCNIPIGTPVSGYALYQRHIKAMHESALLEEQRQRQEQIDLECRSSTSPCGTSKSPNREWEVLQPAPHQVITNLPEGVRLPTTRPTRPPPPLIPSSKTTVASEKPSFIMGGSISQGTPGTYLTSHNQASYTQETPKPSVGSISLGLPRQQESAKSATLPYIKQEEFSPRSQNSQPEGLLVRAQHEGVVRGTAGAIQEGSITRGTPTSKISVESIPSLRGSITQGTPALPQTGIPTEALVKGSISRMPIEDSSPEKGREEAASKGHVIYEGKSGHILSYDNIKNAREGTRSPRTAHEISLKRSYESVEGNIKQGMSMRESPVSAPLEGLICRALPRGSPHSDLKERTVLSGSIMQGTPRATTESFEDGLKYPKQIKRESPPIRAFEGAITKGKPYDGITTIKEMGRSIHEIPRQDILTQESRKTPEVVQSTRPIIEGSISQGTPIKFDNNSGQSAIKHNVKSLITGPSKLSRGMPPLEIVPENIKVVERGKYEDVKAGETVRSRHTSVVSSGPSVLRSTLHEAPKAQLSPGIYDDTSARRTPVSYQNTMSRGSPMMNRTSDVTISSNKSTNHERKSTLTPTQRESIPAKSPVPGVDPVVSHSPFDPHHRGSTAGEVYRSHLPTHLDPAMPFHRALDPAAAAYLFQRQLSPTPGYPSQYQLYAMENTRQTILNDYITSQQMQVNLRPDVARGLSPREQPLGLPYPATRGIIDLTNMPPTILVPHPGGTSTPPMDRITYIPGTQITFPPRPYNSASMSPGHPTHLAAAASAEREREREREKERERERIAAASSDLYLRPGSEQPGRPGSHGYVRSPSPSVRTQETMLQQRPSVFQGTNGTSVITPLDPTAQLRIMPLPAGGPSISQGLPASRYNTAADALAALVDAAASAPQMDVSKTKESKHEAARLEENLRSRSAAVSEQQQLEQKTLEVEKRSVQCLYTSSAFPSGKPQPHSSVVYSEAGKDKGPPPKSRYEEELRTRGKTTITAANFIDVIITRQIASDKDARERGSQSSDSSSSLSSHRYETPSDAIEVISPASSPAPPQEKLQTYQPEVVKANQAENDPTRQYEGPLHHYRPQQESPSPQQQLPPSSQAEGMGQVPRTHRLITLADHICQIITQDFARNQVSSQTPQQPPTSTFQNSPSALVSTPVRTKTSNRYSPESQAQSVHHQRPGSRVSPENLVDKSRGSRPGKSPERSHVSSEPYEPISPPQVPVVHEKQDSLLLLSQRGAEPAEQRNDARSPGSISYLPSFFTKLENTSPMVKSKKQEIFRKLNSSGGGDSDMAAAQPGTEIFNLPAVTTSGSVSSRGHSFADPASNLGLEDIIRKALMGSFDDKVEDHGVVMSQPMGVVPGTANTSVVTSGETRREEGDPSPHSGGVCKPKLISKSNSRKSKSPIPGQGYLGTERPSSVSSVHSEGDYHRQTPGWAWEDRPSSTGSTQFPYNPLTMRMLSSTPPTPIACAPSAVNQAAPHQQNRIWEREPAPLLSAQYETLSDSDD
Sequence of Histone deacetylase 9 (Q9UKV0 whole entry, the tested form may be a part): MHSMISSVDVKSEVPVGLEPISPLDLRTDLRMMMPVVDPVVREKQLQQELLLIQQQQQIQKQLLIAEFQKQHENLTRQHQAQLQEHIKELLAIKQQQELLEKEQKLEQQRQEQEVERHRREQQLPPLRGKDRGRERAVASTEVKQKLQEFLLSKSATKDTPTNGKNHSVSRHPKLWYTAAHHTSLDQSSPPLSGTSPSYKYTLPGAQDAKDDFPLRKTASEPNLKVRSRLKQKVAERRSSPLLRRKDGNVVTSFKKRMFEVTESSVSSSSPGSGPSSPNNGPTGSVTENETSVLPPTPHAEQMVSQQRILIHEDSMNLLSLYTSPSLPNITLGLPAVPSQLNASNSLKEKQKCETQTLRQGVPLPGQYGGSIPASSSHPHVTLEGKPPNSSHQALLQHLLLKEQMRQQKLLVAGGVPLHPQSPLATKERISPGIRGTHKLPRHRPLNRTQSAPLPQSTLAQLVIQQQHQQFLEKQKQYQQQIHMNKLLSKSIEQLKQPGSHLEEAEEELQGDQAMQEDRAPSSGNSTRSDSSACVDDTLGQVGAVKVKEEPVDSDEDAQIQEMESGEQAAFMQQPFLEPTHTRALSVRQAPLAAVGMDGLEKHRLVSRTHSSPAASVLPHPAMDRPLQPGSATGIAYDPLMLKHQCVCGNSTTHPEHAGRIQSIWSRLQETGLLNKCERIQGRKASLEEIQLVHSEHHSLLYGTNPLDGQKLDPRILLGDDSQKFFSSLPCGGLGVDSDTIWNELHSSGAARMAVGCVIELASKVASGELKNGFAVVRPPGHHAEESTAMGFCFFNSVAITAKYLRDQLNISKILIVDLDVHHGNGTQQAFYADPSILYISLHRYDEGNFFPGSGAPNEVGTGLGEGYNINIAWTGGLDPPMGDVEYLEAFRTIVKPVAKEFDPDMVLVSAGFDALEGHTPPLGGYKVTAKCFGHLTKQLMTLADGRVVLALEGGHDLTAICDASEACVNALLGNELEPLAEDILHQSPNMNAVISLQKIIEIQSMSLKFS

IC50 (Histone deacetylase 7): > 1 µM
IC50 (Histone deacetylase 4): > 1 µM
IC50 (MDA-MB-231 [1]): 1.33 µM
IC50 [4]: 0.106 µM
IC50 (MDA-MB-231 [6]): 0.898 µM
IC50 (Histone deacetylase 11): > 1 µM
IC50 (Histone deacetylase 9): > 1 µM
SMILES: COc1cc(OC)c2c(N3CCS(=O)(=O)CC3)nc(-c3cc(C)c(OCCCCCC(=O)NO)c(C)c3)nc2c1
Activity (MDA-MB-231 [2]): Active
Activity (MDA-MB-231 [3]): Active
inhibition (MDA-MB-231 [5]): Dose-dependent effect
Activity (MDA-MB-231 [7]): 1.05%
Activity (MDA-MB-231 [8]): Active
Activity (MDA-MB-231 [9]): Active
Activity (MDA-MB-231 [10]): Active
Activity (MDA-MB-231 [11]): 35.5%
Activity (MDA-MB-231 [12]): Active
Activity (MDA-MB-231 [13]): 16.28%
inhibition (MDA-MB-231 [14]): Active
viability at 5 µM (MDA-MB-231 [15]): 71.5%
